Read-outs that look alike come from different tables or passages of the source. Where a SMILES comes first, the peptide text is derived from it. Where no end group is shown, it is not given here. [ ]: non-standard residue; d: D form. Tyr(3-I) = N[C@@H](Cc1ccc(O)c(I)c1)C(=O)O; pGlu = O=C1CC[C@@H](C(=O)O)N1
Experiments:
Assay type in all cases: biochemical, C. elegans
[1] = target: T1, CEGPCR12h receptor (Caenorhabditis elegans, UniProt Q20275); assay: [35S]GTPγS binding assay, CEGPCR12h expressed in CHO cells; conditions: for activity at single concentration: peptides tested at 5 μM
T1 sequence (Q20275 1-402): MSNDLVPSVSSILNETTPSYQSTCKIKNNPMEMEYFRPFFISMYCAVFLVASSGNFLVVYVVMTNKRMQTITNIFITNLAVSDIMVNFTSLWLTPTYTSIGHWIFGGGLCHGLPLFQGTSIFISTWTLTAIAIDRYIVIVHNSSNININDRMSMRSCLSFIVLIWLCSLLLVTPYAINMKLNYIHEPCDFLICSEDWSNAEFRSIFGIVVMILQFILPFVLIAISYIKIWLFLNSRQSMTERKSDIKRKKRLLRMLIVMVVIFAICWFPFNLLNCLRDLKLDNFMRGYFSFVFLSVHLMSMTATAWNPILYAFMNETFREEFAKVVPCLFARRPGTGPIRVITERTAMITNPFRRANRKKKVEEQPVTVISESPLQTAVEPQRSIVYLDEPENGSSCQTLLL
Description: (§1) Recombinant pCR3.1 clones encoding invertebrate GPCR-like receptors were transformed into wild-type CHO-K1 cells and functional expression was achieved using a temperature-shift incubation protocol. The CHO-K1 cells were cultured at 37° C. in a humidified atmosphere of 5% CO2 in air in DMEM medium supplemented with 10% heat-inactivated fetal bovine serum (i.e., FBS), 10 μg/ml gentamicin, and 0.1 mM nonessential amino acids to give complete DMEM medium. Additionally, for incubations at temperatures lower than 37° C., the medium was fortified with 10 mM HEPES (pH 7.4). Cells were transfected with recombinant pCR3.1 clones containing GPCR-like receptor DNAs, using LipofectAMINE PLUS™, essentially according to the manufacturer's instructions. […] In separate plastic tubes, PLUS (20 μl/plate; Life Technologies) was added to 0.75 ml/plate of recombinant plasmid DNA in OptiMEM (5 μg/plate; Gibco/BRL—Life Technologies), mixed and incubated at room temperature for 15 minutes. Separately, LipofectAMINE (30 μl/plate) was mixed with 0.75 ml OptiMEM and added to the pre-complexed DNA/PLUS mixture and incubated at room temperature for 15 minutes. The culture medium was then replaced with serum-free transfection medium (DMEM, 5 ml/plate). The DNA-PLUS-LipofectAMINE complex was then added to the plates (1.5 ml/plate) and mixed gently into the medium, followed by a 3 hour incubation at 37° C. in 5% CO2. At this time, the medium was supplemented with complete DMEM medium containing 20% FBS (6.5 ml/plate) and incubation was continued at 37° C. in 5% CO2. After a total of 24 hours at 37° C. in 5% CO2, the medium was replaced with complete DMEM medium fortified with 10 mM HEPES (10 ml/plate) and the cells were moved to an incubator maintained at 28-30° C. in a humidified atmosphere of 5% CO2 in air. The incubation continued for an additional 24 hours, typically at the lower temperature indicated above. A plasmid encoding Green Fluorescent Protein (i.e., GFP, 4 μg/plate) was used for transient GFP expression in CHO-K1 cells to estimate the transfection yields under the same conditions as used for GPCR-like receptor polynucleotides.
(§2) To assess expression, membranes were prepared from transfected CHO-K1 cells. Transfected cells were washed once with ice-cold Dulbecco's phosphate-buffered saline (i.e., PBS), 5 ml per 10 cm plate, and the cells were scraped into 5 ml of the same buffer. Cell suspensions from multiple plates were combined and centrifuged at 500×g for 10 minutes at 4° C. The cell pellet was reconstituted in ice-cold TEE (25 mM Tris, pH 7.4, 5 mM EGTA, 5 mM EDTA). Convenient aliquots were snap-frozen in liquid nitrogen and stored at −70° C. After thawing, the cells were homogenized and centrifuged at 500×g for 5 minutes at 4° C. to pellet nuclei and unbroken cells. Tile supernatant was centrifuged at 47,000×g for 30 minutes at 4° C. The membrane pellet was washed once with TEE, resuspended in 20 mM HEPES, pH 7.4, 100 mM NaCl, 10 mM MgCl2, 1 mM EDTA (assay buffer), distributed into aliquots of 0.5-1.0 ml, and frozen in liquid nitrogen. Membrane aliquots were stored at −70° C. Membrane protein concentration was determined using the BCA Protein Assay Reagent from Pierce (Rockford, Ill.), with bovine serum albumin (i.e., BSA) as a standard.
(§3) Aliquots of cell membranes prepared as described above and stored at −70° C. were thawed, homogenized, and diluted into buffer containing 20 mM HEPES, pH 7.4, 10 mM MgCl2, 1 mM EDTA, and 100 mM NaCl at a concentration of 10-50 μg/ml. Reaction mixtures were prepared in 96-well polypropylene plate, Nunc. Twenty microliters of a 10× putative modulator compound (including but not limited to potential peptide ligands) solution or a water control (20 μl), 18.2 µM GDP (0.11 ml, 10 μM final concentration), and a membrane preparation were mixed and placed on ice. The modulator/ligand-GDP-membrane mixtures were incubated for 20 minutes at room temperature on a shaking platform and then placed on ice.

[2] = target: T2, CEGPCR5 (Caenorhabditis elegans, UniProt Q18179); assay: [35S]GTPγS binding assay, CEGPCR5 expressed in CHO cells
T2 sequence (Q18179 1-402): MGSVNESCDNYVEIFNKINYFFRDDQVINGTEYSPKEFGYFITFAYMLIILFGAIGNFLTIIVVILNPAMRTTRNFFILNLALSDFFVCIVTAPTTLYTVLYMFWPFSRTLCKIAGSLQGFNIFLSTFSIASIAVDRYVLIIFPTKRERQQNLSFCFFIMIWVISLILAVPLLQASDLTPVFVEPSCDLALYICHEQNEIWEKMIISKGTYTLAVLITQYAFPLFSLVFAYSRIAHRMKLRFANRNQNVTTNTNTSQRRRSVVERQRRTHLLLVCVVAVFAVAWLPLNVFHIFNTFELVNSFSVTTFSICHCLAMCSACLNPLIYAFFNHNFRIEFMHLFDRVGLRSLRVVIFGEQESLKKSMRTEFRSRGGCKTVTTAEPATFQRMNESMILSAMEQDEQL
Description: as §1, §2, §3

[3] = target: T3, CEGPCR16 receptor (Caenorhabditis elegans, UniProt Q9XXU4); assay: [35S]GTPγS binding assay, CEGPCR16 expressed in CHO cells; conditions: Table 10; one range for the group of peptides; read-out: EC50 range
T3 sequence (Q9XXU4 1-365): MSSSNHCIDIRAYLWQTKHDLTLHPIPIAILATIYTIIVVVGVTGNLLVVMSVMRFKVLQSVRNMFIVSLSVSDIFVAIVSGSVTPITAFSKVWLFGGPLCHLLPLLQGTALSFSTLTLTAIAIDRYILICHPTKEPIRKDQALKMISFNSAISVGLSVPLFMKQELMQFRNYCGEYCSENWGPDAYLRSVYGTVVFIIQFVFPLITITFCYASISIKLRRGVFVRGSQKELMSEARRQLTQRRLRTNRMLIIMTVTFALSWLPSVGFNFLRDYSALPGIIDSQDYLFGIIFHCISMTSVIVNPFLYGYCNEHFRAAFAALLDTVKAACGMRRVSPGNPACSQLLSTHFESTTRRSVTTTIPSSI
Description: as §1, §2, §3

[4] = EC50 range, Table 11, one range for the group, results apply to all CEGPCR12 isoforms

Row | Compound | EC50 [2] [nM] | EC50 [3] [nM] | also measured
1 | CC(C)C[C@H](NC(=O)[C@H](Cc1ccccc1)NC(=O)[C@@H](NC(=O)[C@H](Cc1c[nH]cn1)NC(=O)[C@H](CC(=O)O)NC(=O)[C@@H](NC(=O)[C@H](CC(=O)O)NC(=O)[C@@H]1CCCN1C(=O)[C@@H](N)Cc1ccc(O)c(I)c1)C(C)C)C(C)C)C(=O)N[C@@H](CCCNC(=N)N)C(=O)N[C@@H](Cc1ccccc1)C(N)=O [[I]Y^0PDVDHVFLRF-NH2] (H-[Tyr(3-I)]PDVDHVFLRF-NH2) |  |  | EC50 ([1]; EC50): 478 nM; EC50 [1, 4]: 300 to 500 nM
2 | CC(C)C[C@H](NC(=O)[C@H](Cc1ccccc1)NC(=O)[C@@H](NC(=O)[C@H](Cc1c[nH]cn1)NC(=O)[C@H](CC(=O)O)NC(=O)[C@@H](NC(=O)[C@H](CC(=O)O)NC(=O)[C@@H]1CCC(=O)N1)C(C)C)C(C)C)C(=O)N[C@@H](CCCNC(=N)N)C(=O)N[C@@H](Cc1ccccc1)C(N)=O [pQDVDHVFLRF-NH2] ([pGlu]DVDHVFLRF-NH2) |  |  | EC50 [1, 4]: 1500 to 3000 nM
3 | AGAKFIRF-NH2 [AGAKFIRF-NH2] | 1000 to 8000 |  | 
4 | AGPRFIRF-NH2 [AGPRFIRF-NH2] | 1000 to 8000 |  | 
5 | ARGPQLRLRF-NH2 [ARGPQLRLRF-NH2] |  |  | EC50 ([2]; EC50 range, Table 9, one range for the group of peptides): 1000 to 8000 nM
6 | AVPGVLRF-NH2 [AVPGVLRF-NH2] |  | 700 to 4600 | activity at single concentration ([1]; Table 11): active at
7 | DFDGAMPGVLRF-NH2 [DFDGAMPGVLRF-NH2] |  | 700 to 4600 | 
8 | DPSFLRF-NH2 [DPSFLRF-NH2] | 80 to 800 |  | 
9 | DVPGVLRF-NH2 [DVPGVLRF-NH2] |  | 700 to 4600 | activity at single concentration ([1]; Table 11): active at
10 | EAEEPLGTMRF-NH2 [EAEEPLGTMRF-NH2] |  | 60 to 300 | 
11 | EDGNAPFGTMRF-NH2 [EDGNAPFGTMRF-NH2] |  | 60 to 300 | 
12 | EIPGVLRF-NH2 [EIPGVLRF-NH2] |  | 700 to 4600 | 
13 | EIVFHQISPIFFRF-NH2 [EIVFHQISPIFFRF-NH2] | 1000 to 8000 |  | 
14 | FDDYGHLRF-NH2 [FDDYGHLRF-NH2] |  |  | EC50 ([1]; Table 11, one range for the group, results apply to all CEGPCR12 isoforms, read-out: EC50 range): 300 to 500 nM
15 | GDVPGVLRF-NH2 [GDVPGVLRF-NH2] |  | 700 to 4600 | activity at single concentration ([1]; Table 11): active at
16 | GMPGVLRF-NH2 [GMPGVLRF-NH2] | 1000 to 8000 | 60 to 300 | activity at single concentration ([1]; Table 11): active at
17 | KHEYLRF-NH2 [KHEYLRF-NH2] | 1000 to 8000 |  | 
18 | KPNFLRF-NH2 [KPNFLRF-NH2] | 1000 to 8000 |  | 

Source: patent US6632621B1, “G protein-coupled receptor-like receptors and modulators thereof” (priority 1999, dated 2003)
